Measured values: US11168079B2, “Alkene compounds as farnesoid x receptor modulators” (BRISTOL-MYERS SQUIBB COMPANY, priority 2017, dated 2021)

Biological target: T1, human FXR (Homo sapiens, UniProt Q96RI1)
T1 sequence (Q96RI1 262-486 limits assumed): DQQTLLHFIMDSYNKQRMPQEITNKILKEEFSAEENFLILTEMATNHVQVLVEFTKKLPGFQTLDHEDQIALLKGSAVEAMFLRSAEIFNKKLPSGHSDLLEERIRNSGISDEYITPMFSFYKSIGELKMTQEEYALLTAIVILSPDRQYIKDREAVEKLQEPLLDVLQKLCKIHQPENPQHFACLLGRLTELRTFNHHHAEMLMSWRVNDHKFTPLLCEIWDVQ
Assay: transient human FXR/Gal4-luciferase reporter assay (HLE GAL-FXR)
Conditions: FXR EC50 (nM), Gal4-hFXR fusion reporter, HEK293 cells; Table 1

Row | Structure (SMILES) | EC50 [nM]
1 | COc1cc(C(=O)O)cc2sc(N3CC4C(/C=C/c5c(-c6c(Cl)cncc6Cl)noc5C5CC5)C4C3)nc12 (centres unmarked) [Example 114] | 131
2 | O=C(O)c1cc(OC2CCC2)c2cc(N3CC(/C=C/c4c(-c5c(Cl)ccnc5Cl)noc4C4CC4)C3)ccc2n1 [Example 159] | 39
3 | O=C(O)c1cc(OC(F)F)c2cc(N3CC4C(/C=C/c5c(-c6c(Cl)cncc6Cl)noc5C5CC5)C4C3)ccc2n1 (centres unmarked) [Example 91] | 4
4 | O=C(O)c1cc(C(F)(F)F)c2cc(N3CC[C@@H](/C=C/c4c(-c5ccccc5C(F)(F)F)noc4C4CC4)C3)ccc2n1 [Example 145] | 419
5 | O=C(O)c1cc(O[C@@H]2CCOC2)c2cc(N3CC4C(/C=C/c5c(-c6cccnc6C(F)(F)F)noc5C5CC5)C4C3)ccc2n1 (some centres unmarked) [Example 157] | 165
6 | O=C(O)c1ccn2nc(N3CCC(/C=C/c4c(-c5c(Cl)cccc5Cl)noc4C4CC4)CC3)ncc12 [Example 29] | 60
7 | O=C(O)c1ccc2cc(N3CC4C(/C=C/c5c(-c6c(Cl)cncc6Cl)noc5C5CC5)C4C3)ccc2n1 (centres unmarked) [Example 82] | 267
8 | O=C(O)c1cc(OC2COC2)c2cc(N3CC(/C=C/c4c(-c5ccccc5C(F)(F)F)noc4C4CC4)C3)ccc2n1 [Example 151] | 96
9 | O=C(O)c1cc(O[C@@H]2CCOC2)c2cc(N3CC(/C=C/c4c(-c5cccnc5C(F)(F)F)noc4C4CC4)C3)ccc2n1 [Example 188] | 1690
10 | O=C(O)c1cc2ccc(N3CCC(/C=C/c4c(-c5c(Cl)cccc5Cl)noc4C4CC4)CC3)cc2cn1 [Example 37] | 17
11 | O=C(O)c1cc(O[C@H]2CCOC2)c2cc(N3CC4C(/C=C/c5c(-c6c(Cl)cncc6Cl)noc5C5CC5)C4C3)ccc2n1 (some centres unmarked) [Example 128] | 27
12 | O=C(O)c1cc(C(F)(F)F)c2cc(N3CCC(/C=C/c4c(-c5ccncc5Cl)noc4C4CC4)CC3)ccc2n1 [Example 84] | 215
13 | O=C(O)c1cnn(-c2ccc(N3CC(/C=C/c4c(-c5c(Cl)cncc5Cl)noc4C4CC4)C3)cc2)c1 [Example 220] | 107
14 | O=C(O)c1cc(OC2COC2)c2cc(N3CC4C(/C=C/c5c(-c6cccnc6C(F)(F)F)noc5C5CC5)C4C3)ccc2n1 (centres unmarked) [Example 143] | 88
15 | O=C(O)c1nc(C(F)(F)F)n2cc(N3CCC(/C=C/c4c(-c5c(Cl)cccc5Cl)noc4C4CC4)CC3)ccc12 [Example 39] | 5
16 | COc1cc(C(=O)O)cc(-c2nc(N3CC4C(/C=C/c5c(-c6cccnc6C(F)(F)F)noc5C5CC5)C4C3)no2)c1 (centres unmarked) [Example 155] | 784
17 | O=C(O)c1cnc2ccc(N3CC4C(/C=C/c5c(-c6ccccc6C(F)(F)F)noc5C5CC5)C4C3)cc2n1 (centres unmarked) [Example 138] | 2470
18 | O=C(O)c1ccnc(N2CCC(/C=C/c3c(-c4c(Cl)cccc4Cl)noc3C3CC3)CC2)c1 [Example 36] | 144
19 | Cn1c(C(=O)O)cc2ccc(N3CCC(/C=C/c4c(-c5c(Cl)cccc5Cl)noc4C4CC4)CC3)cc21 [Example 35] | 25
20 | O=C(O)c1cc2ccc(N3CC4C(/C=C/c5c(-c6c(Cl)cncc6Cl)noc5C5CC5)C4C3)cc2cn1 (centres unmarked) [Example 73] | 673
21 | O=C(O)c1cc(O[C@H]2C[C@@H](F)C2)c2cc(N3CC4C(/C=C/c5c(-c6ccccc6C(F)(F)F)noc5C5CC5)C4C3)ccc2n1 (some centres unmarked) [Example 185] | 11
22 | COc1cc(C(=O)O)nc2ccc(N3CC(/C=C/c4c(-c5cccnc5C(F)(F)F)noc4C4CC4)C3)cc12 [Example 169] | 223

Same assay, conditions: HLE GAL-FXR EC50, Gal4-hFXR fusion reporter, HEK293 cells

Row | Structure (SMILES) | EC50 [nM]
23 | COc1cc(C(=O)O)cc(-c2nsc(N3CC4C(/C=C/c5c(-c6c(Cl)cncc6Cl)noc5C5CC5)C4C3)n2)c1 (centres unmarked) [Example 214, (E)-3-(5-(6-(2-(5-Cyclopropyl-3-(3,5-dichloropyridin-4-yl)isoxazol-4-yl)vinyl)-3-azabicyclo[3.1.0]hexan-3-yl)-1,2,4-thiadiazol-3-yl)-5-methoxybenzoic acid] | 107
